Results: US11236087B2, “Highly active pyrazolo-piperidine substituted indole-2-carboxamides active against the hepatitis B virus (HBV)” (AiCuris GmbH & Co. KG, priority 2017, dated 2022)
Read-outs that look alike come from different tables or passages of the source.

Legend:
HBV = experiment: Determination of HBV DNA from the supernatants of HepAD38 cells (anti-HBV activity); assay type: cell-based, hepatitis B virus; conditions: Hepatitis B virus, read-out: Cell Activity (EC50)
Procedure, shortened: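 Supernatant viral DNA was measured by LightCycler qPCR, calibrated with pCH-9/3091 plasmid, 6 days after tetracycline-free HepAD38 cultures received half-log serial compound dilutions; untreated and tetracycline-treated cells served as controls; EC50 was fitted by non-linear regression.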

HBV core protein = target: T1, HBV core protein (UniProt P03146); experiment: Biochemical capsid assembly assay (fluorescence quenching); set-up: species or system hepatitis B virus; conditions: read-out: Assembly Activity (IC50); BODIPY-FL labelled core protein, 300 μM NaCl, read 6 min after start
T1 construct: fused on or other part: BODIPY-FL maleimide label on the C-terminal Cys150
Procedure, shortened: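 Assembly-induced fluorescence quenching (477/525 nm) was measured 6 min after NaCl addition ([…]), against 2.5 M and 0 M NaCl controls. The labelled C150 core dimer (truncated at 149) at 1.0-2.0 μM in HEPES pH 7.5 was tested with eight half-log compound dilutions, top 100, 31.6 or 10 μM. EC50 was obtained by non-linear fit from triplicates run three times.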

[1] = Cell viability assay (AlamarBlue) in HepAD38 cells; conditions: human
[2] = 144 h, HBV DNA in HepAD38 supernatant, day 6, qPCR

T1 sequence (P03146 whole entry, looked up, the tested form may be a part): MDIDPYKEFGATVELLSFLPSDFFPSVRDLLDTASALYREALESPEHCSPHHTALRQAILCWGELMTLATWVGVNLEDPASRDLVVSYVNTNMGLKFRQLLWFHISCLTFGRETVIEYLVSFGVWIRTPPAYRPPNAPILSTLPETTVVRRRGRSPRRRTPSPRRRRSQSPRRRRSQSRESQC

| SMILES | EC50 (HBV; [2]) | IC50 (HBV core protein) | CC50 at 6 days [1] | EC50 (HBV; HePAD38, 144 h) |
| --- | --- | --- | --- | --- |
| CN(CCO)C(=O)c1n[nH]c2c1CN(C(=O)c1cc3c(Cl)cccc3[nH]1)CC2 [Example 58, 5-(4-chloro-1H-indole-2-carbonyl)-N-(2-hydroxyethyl)-N-methyl-1H,4H,5H,6H,7H-pyrazolo[4,3-c]pyridine-3-carboxamide] | < 1 µM | < 5 µM | > 100 µM | – |
| CN(CCO)C(=O)c1n[nH]c2c1CN(C(=O)c1cc3c(C(F)(F)F)cccc3[nH]1)CC2 [Example 59, N-(2-hydroxyethyl)-N-methyl-5-[4-(trifluoromethyl)-1H-indole-2-carbonyl]-1H,4H,5H,6H,7H-pyrazolo[4,3-c]pyridine-3-carboxamide] | < 1 µM | < 5 µM | > 32 µM | – |
| CN(CCO)C(=O)c1n[nH]c2c1CN(C(=O)c1cc3c(Cl)cc(F)cc3[nH]1)CC2 [Example 60, 5-(4-chloro-6-fluoro-1H-indole-2-carbonyl)-N-(2-hydroxyethyl)-N-methyl-1H,4H,5H,6H,7H-pyrazolo[4,3-c]pyridine-3-carboxamide] | < 1 µM | < 5 µM | > 32 µM | – |
| Cc1cc(F)cc2[nH]c(C(=O)N3CCc4[nH]nc(C(=O)N(C)CCO)c4C3)cc12 [Example 61, 5-(6-fluoro-4-methyl-1H-indole-2-carbonyl)-N-(2-hydroxyethyl)-N-methyl-1H,4H,5H,6H,7H-pyrazolo[4,3-c]pyridine-3-carboxamide] | < 1 µM | < 5 µM | > 100 µM | – |
| CCc1cccc2[nH]c(C(=O)N3CCc4[nH]nc(C(=O)N(C)CCO)c4C3)cc12 [Example 62, 5-(4-ethyl-1H-indole-2-carbonyl)-N-(2-hydroxyethyl)-N-methyl-1H,4H,5H,6H,7H-pyrazolo[4,3-c]pyridine-3-carboxamide] | < 1 µM | < 5 µM | > 100 µM | – |
| Cc1cccc2[nH]c(C(=O)N3CCc4[nH]nc(C(=O)N(C)CCO)c4C3)cc12 [Example 63, N-(2-hydroxyethyl)-N-methyl-5-(4-methyl-1H-indole-2-carbonyl)-1H,4H,5H,6H,7H-pyrazolo[4,3-c]pyridine-3-carboxamide] | < 1 µM | < 5 µM | > 100 µM | – |
| CC(C)OC(=O)[C@H](C)NP(=O)(OCCON(C)C(=O)c1n[nH]c2c1CN(C(=O)c1cc3ccccc3[nH]1)CC2)Oc1ccccc1 (stereo partly drawn) [Example 64, propan-2-yl (2S)-2-({[2-({1-[5-(1H-indole-2-carbonyl)-1H,4H,5H,6H,7H-pyrazolo[4,3-c]pyridin-3-yl]-N-methylformamido}oxy)ethoxy](phenoxy)phosphoryl}amino)propanoate] | – | < 5 µM | > 32 µM | < 1 µM |
| CC(C)OC(=O)[C@H](C)NP(=O)(OCCCN(C)C(=O)c1n[nH]c2c1CN(C(=O)c1cc3c(Cl)cccc3[nH]1)CC2)Oc1ccccc1 (stereo partly drawn) [Example 66, propan-2-yl (2S)-2-{[(3-{1-[5-(4-chloro-1H-indole-2-carbonyl)-1H,4H,5H,6H,7H-pyrazolo[4,3-c]pyridin-3-yl]-N-methylformamido}propoxy)(phenoxy)phosphoryl]amino}propanoate] | – | < 5 µM | > 32 µM | < 1 µM |
| CC(C)OC(=O)[C@H](C)NP(=O)(OCCN(C)C(=O)c1n[nH]c2c1CN(C(=O)c1cc3c(Cl)cccc3[nH]1)CC2)Oc1ccccc1 (stereo partly drawn) [Example 67, propan-2-yl (2S)-2-{[(2-{1-[5-(4-chloro-1H-indole-2-carbonyl)-1H,4H,5H,6H,7H-pyrazolo[4,3-c]pyridin-3-yl]-N-methylformamido}ethoxy)(phenoxy)phosphoryl]amino}propanoate] | – | < 5 µM | > 32 µM | < 1 µM |
| CC(C)OC(=O)[C@H](C)NP(=O)(OCCCN(C)C(=O)c1n[nH]c2c1CN(C(=O)c1cc3ccccc3[nH]1)CC2)Oc1ccccc1 (stereo partly drawn) [Example 70, propan-2-yl (2S)-2-{[(3-{1-[5-(1H-indole-2-carbonyl)-1H,4H,5H,6H,7H-pyrazolo[4,3-c]pyridin-3-yl]-N-methylformamido}propoxy)(phenoxy)phosphoryl]amino}propanoate] | – | < 5 µM | > 32 µM | 1 to 25 µM |
| CC(C)OC(=O)[C@H](C)NP(=O)(OCCN(C)C(=O)c1n[nH]c2c1CN(C(=O)c1cc3ccccc3[nH]1)CC2)Oc1ccccc1 (stereo partly drawn) [Example 71, propan-2-yl (2S)-2-{[(2-{1-[5-(1H-indole-2-carbonyl)-1H,4H,5H,6H,7H-pyrazolo[4,3-c]pyridin-3-yl]-N-methylformamido}ethoxy)(phenoxy)phosphoryl]amino}propanoate] | – | 5 to 10 µM | > 32 µM | 1 to 25 µM |
| CN(c1n[nH]c2c1CN(C(=O)c1cc3ccccc3[nH]1)CC2)S(C)(=O)=O [Example 74, N-[5-(1H-indole-2-carbonyl)-1H,4H,5H,6H,7H-pyrazolo[4,3-c]pyridin-3-yl]-N-methylmethanesulfonamide] | 1 to 25 µM | < 100 µM | > 100 µM | – |
| CN(C)c1n[nH]c2c1CN(C(=O)c1cc3ccccc3[nH]1)CC2 [Example 75, 5-(1H-indole-2-carbonyl)-N,N-dimethyl-1H,4H,5H,6H,7H-pyrazolo[4,3-c]pyridin-3-amine] | < 1 µM | 5 to 10 µM | > 100 µM | – |
| O=C(c1cc2ccccc2[nH]1)N1CCc2[nH]nc(NCC3CC3)c2C1 [Example 79, N-(cyclopropylmethyl)-5-(1H-indole-2-carbonyl)-1H,4H,5H,6H,7H-pyrazolo[4,3-c]pyridin-3-amine] | 1 to 25 µM | 5 to 10 µM | > 100 µM | – |
| CCNc1n[nH]c2c1CN(C(=O)c1cc3ccccc3[nH]1)CC2 [Example 80, N-ethyl-5-(1H-indole-2-carbonyl)-1H,4H,5H,6H,7H-pyrazolo[4,3-c]pyridin-3-amine] | 1 to 25 µM | < 100 µM | > 100 µM | – |
| O=C(c1cc2ccccc2[nH]1)N1CCc2[nH]nc(NCC3CCOCC3)c2C1 [Example 81, 5-(1H-indole-2-carbonyl)-N-[(oxan-4-yl)methyl]-1H,4H,5H,6H,7H-pyrazolo[4,3-c]pyridin-3-amine] | 1 to 25 µM | < 100 µM | > 100 µM | – |
| CS(=O)(=O)Nc1n[nH]c2c1CN(C(=O)c1cc3ccccc3[nH]1)CC2 [Example 82, N-[5-(1H-indole-2-carbonyl)-1H,4H,5H,6H,7H-pyrazolo[4,3-c]pyridin-3-yl]methanesulfonamide] | < 100 µM | < 100 µM | > 100 µM | – |
| CN(CC1CCOCC1)C(=O)c1n[nH]c2c1CN(C(=O)c1cc3ccccc3[nH]1)CC2 [Example 85, 5-(1H-indole-2-carbonyl)-N-methyl-N-[(oxan-4-yl)methyl]-1H,4H,5H,6H,7H-pyrazolo[4,3-c]pyridine-3-carboxamide] | 1 to 25 µM | < 100 µM | > 100 µM | – |
| O=C(c1cc2ccccc2[nH]1)N1CCc2[nH]nc(NCc3ccccc3)c2C1 [Example 91, N-benzyl-5-(1H-indole-2-carbonyl)-1H,4H,5H,6H,7H-pyrazolo[4,3-c]pyridin-3-amine] | 1 to 25 µM | 5 to 10 µM | > 100 µM | – |
| CN(CC1CCOC1)C(=O)c1n[nH]c2c1CN(C(=O)c1cc3ccccc3[nH]1)CC2 (stereo not drawn) [Example 95, 5-(1H-indole-2-carbonyl)-N-methyl-N-[(oxolan-3-yl)methyl]-1H,4H,5H,6H,7H-pyrazolo[4,3-c]pyridine-3-carboxamide] | 1 to 25 µM | < 100 µM | > 100 µM | – |
